Source: PMC3338766 (2012)

Tests used:
[1] = system: d(T2G8) (DNA, G4) GGGGTTGGGG; assay: ESI-MS, relative binding affinity; conditions: 50 mM ammonium acetate; residual K+; 10 nM quadruplex and ligand, 10% methanol; intensity-derived index, not a constant
[2] = system: d(T2G8) (DNA, G4) GGGGTTGGGG; assay: ITC; conditions: K+ (100 mM KCl, 30 mM potassium phosphate); pH 7.0, 25 °C; two-sites model; site 1 of 2
[3] = system: d(T2G8) (DNA, G4) GGGGTTGGGG; assay: SYBR Green fluorescence melting; conditions: K+ (100 mM KCl, 30 mM potassium phosphate), 5 µM quadruplex, 1× SYBR Green, ligand concentration not stated
[4] = system: d(T2G8) (DNA, G4) GGGGTTGGGG; assay: UV-Vis titration (soret shift 424–434 nm, 38.2% hypochromicity); conditions: K+ (100 mM KCl, 30 mM potassium phosphate); 5 µM TMPyP4, 25 °C

Compound	IRa [1]	K1 [2]	Tm ([3]; Tm 43 to 36 °C, derived from two Tm)	Tm ([3]; Tm 43 to 49 °C)	binding [4]
COc1cc2c(cc1OCCCC(=O)Nc1ccc3ccc4cccc5ccc1c3c45)N=C[C@@H]1CCCN1C2=O	0.45	0.0597 (±0.01) × 10^8	-7 °C		
COc1cc2c(cc1OCCCCCOc1cc3c(cc1OC)C(=O)N1CCC[C@H]1C(=O)N3)N=C[C@@H]1CCCN1C2=O	0.67	0.0875 (±0.03) × 10^8		~ 6 °C	
C[n+]1ccc(-c2c3nc(c(-c4cc[n+](C)cc4)c4ccc([nH]4)c(-c4cc[n+](C)cc4)c4nc(c(-c5cc[n+](C)cc5)c5ccc2[nH]5)C=C4)C=C3)cc1	0.18				yes
